System: NOMO1
Assay: cell viability relative to DMSO control; higher = less cytotoxic
Conditions: 48 h
In short: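 Viability values are per-plate percentages of DMSO wells, with background from cell-free wells. Library compounds in DMSO were pin-dosed, in an 11-point threefold series from 47 μM to 0.79 nM, onto NOMO1 or SEM (500 cells/well) or P12-Ichikawa (1000 cells/well) leukemia cells in 1536-well plates (5 μl). Those cells had been adapted for at least four passages in each medium, and CellTiter-Glo One luminescence was read after 48 h at 37°C.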

[1] = HPLM + 10% dialyzed FBS, 0.000781 µM
[2] = HPLM + 10% dialyzed FBS, 0.00234 µM
[3] = HPLM + 10% dialyzed FBS, 0.00702 µM
[4] = HPLM + 10% dialyzed FBS, 0.0211 µM
[5] = HPLM + 10% dialyzed FBS, 0.0632 µM
[6] = HPLM + 10% dialyzed FBS, 0.19 µM
[7] = HPLM + 10% dialyzed FBS, 0.569 µM
[8] = HPLM + 10% dialyzed FBS, 1.71 µM
[9] = HPLM + 10% dialyzed FBS, 5.12 µM
[10] = HPLM + 10% dialyzed FBS, 15.4 µM
[11] = HPLM + 10% dialyzed FBS, 46.1 µM
[12] = RPMI 5 mM glucose + 10% FBS, 0.000781 µM
[13] = RPMI 5 mM glucose + 10% FBS, 0.00234 µM
[14] = RPMI 5 mM glucose + 10% FBS, 0.00702 µM
[15] = RPMI 5 mM glucose + 10% FBS, 0.0211 µM
[16] = RPMI 5 mM glucose + 10% FBS, 0.0632 µM
[17] = RPMI 5 mM glucose + 10% FBS, 0.19 µM
[18] = RPMI 5 mM glucose + 10% FBS, 0.569 µM
[19] = RPMI 5 mM glucose + 10% FBS, 1.71 µM
[20] = RPMI 5 mM glucose + 10% FBS, 5.12 µM
[21] = RPMI 5 mM glucose + 10% FBS, 15.4 µM
[22] = RPMI 5 mM glucose + 10% FBS, 46.1 µM
[23] = RPMI 5 mM glucose + 10% dialyzed FBS, 0.000781 µM
[24] = RPMI 5 mM glucose + 10% dialyzed FBS, 0.00234 µM
[25] = RPMI 5 mM glucose + 10% dialyzed FBS, 0.00702 µM
[26] = RPMI 5 mM glucose + 10% dialyzed FBS, 0.0211 µM
[27] = RPMI 5 mM glucose + 10% dialyzed FBS, 0.0632 µM
[28] = RPMI 5 mM glucose + 10% dialyzed FBS, 0.19 µM
[29] = RPMI 5 mM glucose + 10% dialyzed FBS, 0.569 µM
[30] = RPMI 5 mM glucose + 10% dialyzed FBS, 1.71 µM
[31] = RPMI 5 mM glucose + 10% dialyzed FBS, 5.12 µM
[32] = RPMI 5 mM glucose + 10% dialyzed FBS, 15.4 µM
[33] = RPMI 5 mM glucose + 10% dialyzed FBS, 46.1 µM

SMILES | cell viability [1] [%] | cell viability [2] [%] | cell viability [3] [%] | cell viability [4] [%] | cell viability [5] [%] | cell viability [6] [%] | cell viability [7] [%] | cell viability [8] [%] | cell viability [9] [%] | cell viability [10] [%] | cell viability [11] [%] | cell viability [12] [%] | cell viability [13] [%] | cell viability [14] [%] | cell viability [15] [%] | cell viability [16] [%] | cell viability [17] [%] | cell viability [18] [%] | cell viability [19] [%] | cell viability [20] [%] | cell viability [21] [%] | cell viability [22] [%] | cell viability [23] [%] | cell viability [24] [%] | cell viability [25] [%] | cell viability [26] [%] | cell viability [27] [%] | cell viability [28] [%] | cell viability [29] [%] | cell viability [30] [%] | cell viability [31] [%] | cell viability [32] [%] | cell viability [33] [%]
Cc1c(C(=O)Nc2cccc(C(F)(F)F)c2)cc(-c2ccccc2)n1CCCN1CCOCC1 | 104 | 99.5 | 112 | 109 | 97.2 | 113 | 129 | 116 | 105 | 95.9 | 82.5 | 107 | 105 | 111 | 100 | 102 | 101 | 96.5 | 92.4 | 91.7 | 96.4 | 95.2 | 115 | 107 | 111 | 109 | 108 | 117 | 111 | 111 | 109 | 91.4 | 73.3
CN(C)C[C@@H]1CC[N]2C=C(C3=C2C=CC=C3)C/4=C(/C(=O)NC4=O)C5=C[N](CCO1)C6=C5C=CC=C6 | 88.8 | 111 | 109 | 96.6 | 102 | 91.4 | 94 | 88.7 | 95.4 | 85.3 | 27.7 | 98.3 | 85.9 | 89.3 | 87.4 | 91.7 | 92.9 | 93 | 87.5 | 86.1 | 83.5 | 73.3 | 90.6 | 84.2 | 99.8 | 93.4 | 99.6 | 97.3 | 92.3 | 85.8 | 83.7 | 77.7 | 67.7
COC(=O)[C@@H](N)CCCNC(=N)N[N+](=O)[O-] | 92.9 | 97.2 | 105 | 88 | 103 | 118 | 99.1 | 96.7 | 104 | 93.9 | 103 | 90 | 85.6 | 96.3 | 88.9 | 86.9 | 86.3 | 92.4 | 88.1 | 92.6 | 93.3 | 102 | 76.9 | 96.3 | 93.8 | 95.7 | 97.4 | 103 | 97.9 | 93.4 | 94.2 | 101 | 105
CC[C@@]1(O)C[C@H](O[C@H]2C[C@H](N(C)C)[C@H](O[C@H]3C[C@H](O)[C@H](O[C@H]4CCC(=O)[C@H](C)O4)[C@H](C)O3)[C@H](C)O2)c2c(cc3c(c2O)C(=O)c2c(O)cccc2C3=O)[C@H]1C(=O)OC | 109 | 106 | 106 | 106 | 122 | 101 | 109 | 82 | 67 | 78.5 | 71.9 | 95.7 | 102 | 95.6 | 97.6 | 106 | 93.8 | 95.6 | 64.2 | 76.6 | 75.8 | 85 | 91.5 | 84.7 | 94.4 | 98.1 | 102 | 90.4 | 93.9 | 67.7 | 71.6 | 75.3 | 72.1
CC1(C)CC(O)CC(C)(C)N1[O] | 100 | 125 | 109 | 115 | 115 | 114 | 125 | 121 | 124 | 129 | 120 | 105 | 122 | 128 | 116 | 128 | 128 | 123 | 118 | 135 | 128 | 127 | 100 | 123 | 121 | 123 | 119 | 119 | 123 | 125 | 120 | 123 | 129
CCN(CC)CCN1C(=O)\C(=N/C2=CC=CC=C12)CC3=CC=C(OC)C=C3 | 111 | 117 | 99.1 | 118 | 119 | 110 | 115 | 115 | 109 | 113 | 116 | 96.1 | 101 | 117 | 109 | 97.4 | 96.6 | 107 | 102 | 111 | 101 | 97.7 | 98.4 | 102 | 113 | 111 | 115 | 119 | 119 | 121 | 111 | 101 | 102
NC\1=N\C(=O)N(\C=C1)[C@H]\2[C@H](O)[C@H](O)C(=C2F)\CO | 78.5 | 111 | 105 | 101 | 110 | 90.8 | 94.7 | 67.5 | 32.1 | 33.6 | 11.3 | 86.3 | 112 | 117 | 106 | 107 | 88.2 | 93 | 83.5 | 54.6 | 12.6 | 7.41 | 89.1 | 96.9 | 104 | 111 | 109 | 107 | 111 | 86.4 | 27.7 | 10.2 | 7.62
CCCCCCCCCCCCCCCCCCOP(=O)([O-])OC1CC[N+](C)(C)CC1 | 93.4 | 114 | 94.8 | 114 | 110 | 120 | 114 | 107 | 107 | 98.4 | 99 | 90.5 | 105 | 113 | 121 | 98.5 | 113 | 120 | 105 | 110 | 93.8 | 96.4 | 96.6 | 107 | 105 | 103 | 100 | 118 | 110 | 102 | 106 | 93.2 | 84.7
CC(C)[C@H](CO)Nc1nc(Nc2cccc(Cl)c2)c2ncn(C(C)C)c2n1 | – | – | – | – | – | – | – | – | – | – | – | – | – | – | – | – | – | – | – | – | – | – | 111 | 124 | 127 | 125 | 124 | 112 | 123 | 84.2 | 12.6 | 6.44 | 3.06
O=C(NNC(=O)c1ccc(CN[S+](=O)([O-])c2ccc(F)c(Cl)c2)cc1)c1ccccc1 | 105 | 105 | 116 | 121 | 112 | 103 | 104 | 117 | 113 | 82.7 | 110 | 84.1 | 85.2 | 85.2 | 89.3 | 92.9 | 99.5 | 93.3 | 91.3 | 96.7 | 94.5 | 92.6 | 92.1 | 98.5 | 107 | 94.2 | 111 | 105 | 103 | 102 | 115 | 112 | 115
Oc1cc(O)cc(/C=C/c2ccc(O)c(O)c2)c1 | 97.9 | 101 | 99.3 | 99.4 | 110 | 104 | 97.4 | 101 | 100 | 56 | 45.4 | 89.7 | 90.5 | 94 | 85.6 | 91.9 | 85.7 | 97.1 | 88.4 | 86.9 | 72.3 | 70.8 | 81.6 | 99.6 | 92.3 | 88.8 | 103 | 98.4 | 94.9 | 93.5 | 79.3 | 84.8 | 72.8
CN[C@@H]1C[C@H]2O[C@@](C)([C@@H]1OC)n1c3ccccc3c3c4c(c5c6ccccc6n2c5c31)C(=O)N[C@H]4O | 81.2 | 101 | 93.1 | 78.2 | 96.8 | 56.4 | 48.8 | 35.4 | 22.7 | 18 | 3.31 | 76.2 | 87.6 | 81.4 | 82.7 | 84.6 | 69.4 | 64.7 | 19.6 | 14.8 | 12.7 | 3.97 | 79.9 | 84.5 | 85.9 | 90.5 | 95.9 | 85.5 | 65.5 | 31.6 | 16.9 | 14.7 | 3.79
COc1ccc(Nc2cc(-c3cnc(N)nc3)nc(N3CCOCC3)n2)cn1 | 105 | 105 | 84.5 | 97.2 | 83.3 | 87 | 76.6 | 79.9 | 54.7 | 46.8 | 39.6 | 82.6 | 90.2 | 88.2 | 84.4 | 83.4 | 88 | 78.4 | 84.8 | 60.5 | 65.4 | 52.7 | 86.8 | 91.8 | 85.3 | 88 | 91.6 | 76.8 | 71.3 | 75.1 | 56.4 | 56.8 | 44.5
O=C1N\2CCC3=C([NH]C4=C3C=CC=C4)C2=N/C5=CC=CC=C15 | 111 | 122 | 130 | 134 | 155 | 147 | 130 | 129 | 155 | 130 | 112 | 144 | 124 | 125 | 128 | 132 | 124 | 169 | 136 | 139 | 140 | 131 | 115 | 121 | 129 | 130 | 130 | 124 | 122 | 140 | 135 | 141 | 124
O=C(CCc1ccc(O)cc1)c1c(O)cc(O)cc1O[C@@H]1O[C@H](CO)[C@@H](O)[C@H](O)[C@H]1O | – | – | – | – | – | – | – | – | – | – | – | 82.5 | 80.8 | 81.7 | 77 | 92.1 | 86.1 | 82.4 | 78.1 | 85.4 | 75.1 | 84.8 | 104 | 96 | 115 | 105 | 115 | 106 | 50.2 | 73.1 | 85.1 | 53.1 | 81.2
O=C1CCc2ccc(OCCCCN3CCN(c4cccc(Cl)c4Cl)CC3)cc2N1 | 115 | 98.6 | 119 | 77.7 | 96.1 | 109 | 89.2 | 91.6 | 106 | 107 | 85.1 | 91.2 | 91.7 | 94.7 | 86.6 | 92.9 | 89.5 | 96.6 | 97.2 | 81.6 | 93.6 | 77.6 | 106 | 83.6 | 97.7 | 75.2 | 96.1 | 93.6 | 91.5 | 98.1 | 91.1 | 97.5 | 78.7

— the supplement of paper PMC11451515
